We go through 30 compounds from patent US8222416B2, “Azaindole glucokinase activators” (Hoffmann-La Roche Inc., priority 2009, dated 2012).

SMILES strings stand for the structures.

This assay addresses T1, Recombinant human liver GK1 (GST-GK) (Homo sapiens, UniProt P35557).
T1 construct: made in house; host or cells: E. coli
T1 sequence (P35557 1-466 isoform P35557-2): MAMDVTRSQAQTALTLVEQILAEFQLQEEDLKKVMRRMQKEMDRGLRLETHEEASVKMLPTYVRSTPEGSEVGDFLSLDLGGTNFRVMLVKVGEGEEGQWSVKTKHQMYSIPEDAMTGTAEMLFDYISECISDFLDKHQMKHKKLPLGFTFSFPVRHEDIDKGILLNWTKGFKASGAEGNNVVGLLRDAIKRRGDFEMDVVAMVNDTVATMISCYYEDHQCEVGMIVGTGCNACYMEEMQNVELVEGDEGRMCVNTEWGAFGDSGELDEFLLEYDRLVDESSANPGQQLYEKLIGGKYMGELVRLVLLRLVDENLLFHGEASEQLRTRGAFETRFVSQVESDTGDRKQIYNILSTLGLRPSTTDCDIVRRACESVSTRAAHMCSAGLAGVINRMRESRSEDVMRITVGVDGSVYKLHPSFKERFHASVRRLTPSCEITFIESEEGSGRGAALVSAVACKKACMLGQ
Put plainly: In vitro glucokinase activity assay (G6PDH-coupled, NADH, OD340). It counts as biochemical. Conditions: concentration of activator that produced a 50% increase in the activity of GK; 5 mM D-glucose, 30° C. The procedure:
Glucokinase In Vitro Assay Protocol: Glucokinase (GK) was assayed by coupling the production of glucose-6-phosphate to the generation of NADH with glucose-6-phosphate dehydrogenase (G6PDH, 0.75-1 kunits/mg; Boehringer Mannheim, Indianapolis, Ind.) from Leuconostoc mesenteroides as the coupling enzyme (Scheme 2).
Recombinant human liver GK1 was expressed in E. coli as a glutathione S-transferase fusion protein (GST-GK) [Liang et al, 1995] and was purified by chromatography over a glutathione-Sepharose 4B affinity column using the procedure provided by the manufacturer (Amersham Pharmacia Biotech, Piscataway, N.J.).
The assay was conducted at 30° C. in a flat bottom 96-well tissue culture plate from Costar (Cambridge, Mass.) with a final incubation volume of 120 μL. The incubation reaction contained the following: 25 mM Hepes buffer (pH 7.1), 25 mM KCl, 5 mM D-glucose, 1 mM ATP, 1.8 mM NAD, 2 mM MgCl2, 1 μM sorbitol-6-phosphate, 1 mM dithiothreitol, test drug or 10% dimethylsulfoxide, ˜7 units/ml G6PDH, and GK (see below). All organic reagents were >98% pure and were from Boehringer Mannheim with the exceptions of D-glucose and Hepes which were from Sigma Chemical Co, St Louis, Mo. Test compounds were dissolved in dimethylsulfoxide and were added to the incubation reaction minus GST-GK in a volume of 12 μL to yield a final dimethylsulfoxide concentration of 10%. This mix was pre-incubated in the temperature controlled chamber of a SPECTRAmax 250 microplate spectrophotometer (Molecular Devices Corporation, Sunnyvale, Calif.) for 10 minutes to allow temperature equilibrium and then the reaction was started by the addition of 20 μL GST-GK.
After addition of enzyme, the increase in optical density (OD) at 340 nm was monitored spectrophotometrically to determine the rate of change (OD340 per min). The GK activity (OD340/min) in control wells (10% dimethylsulfoxide minus GK activators) was compared with the activity in wells containing test GK activators, and the concentration of activator that produced a 50% increase in the activity of GK, i.e., the SC1.5, was calculated.

Consider `CC(O)c1cnc2[nH]c(C(CC3CCCC3)c3ccc(S(C)(=O)=O)cc3)cc2c1` (single isomer, unassigned) [Example 9, 1-{2-[2-Cyclopentyl-1-(4-methanesulfonyl-phenyl)-ethyl]-1H-pyrrolo[2,3-b]pyridin-5-yl}-ethanol], for which the SC1.5 turned out to be 10.9 µM.

As to `COc1cnc2[nH]c([C@H](CC3CCCCC3)c3ccc(S(C)(=O)=O)cc3)cc2c1` (single isomer, unassigned) [Example 10], the SC1.5 was determined as 0.218 µM.

With `CN(C)C(=O)COc1cnc2[nH]c([C@H](CC3CCCC3)c3ccc(S(C)(=O)=O)cc3)cc2c1` (single isomer, unassigned) [Example 14], the SC1.5 worked out at 0.742 µM.

Consider `COc1cnc2[nH]c(C(CC3CCCO3)c3ccc(S(C)(=O)=O)cc3)cc2c1` (single isomer, unassigned) [Example 23, 2-[1-(4-Methanesulfonyl-phenyl)-2-(tetrahydro-furan-2-yl)-ethyl]-5-methoxy-1H-pyrrolo[2,3-b]pyridine], for which the SC1.5 came to 21.9 µM.

Take `COc1cnc2[nH]c(C(CC3CCCO3)c3ccc(S(C)(=O)=O)cc3)cc2c1` (single isomer, unassigned) [Example 24, 2-[1-(4-Methanesulfonyl-phenyl)-2-(tetrahydro-furan-2-yl)-ethyl]-5-methoxy-1H-pyrrolo[2,3-b]pyridine]: the SC1.5 was determined as 2.0 µM.

Turning to `COc1cnc2[nH]c(C(CC3CCCO3)c3ccc(S(C)(=O)=O)cc3)cc2c1` (single isomer, unassigned) [Example 25, 2-[1-(4-Methanesulfonyl-phenyl)-2-(tetrahydro-furan-2-yl)-ethyl]-5-methoxy-1H-pyrrolo[2,3-b]pyridine], the SC1.5 came out at 22.0 µM.

Consider `CC(C)(CO)Oc1cnc2[nH]c([C@H](CC3CCCC3)c3ccc(S(C)(=O)=O)cc3)cc2c1` (single isomer, unassigned) [Example 29], for which the SC1.5 amounted to 1.1 µM.

On to `CS(=O)(=O)c1ccc(C(O)(CC2CCCC2)c2cc3cc(F)cnc3[nH]2)cc1` (single isomer, unassigned) [Example 49, 2-Cyclopentyl-1-(5-fluoro-1H-pyrrolo[2,3-b]pyridin-2-yl)-1-(4-methanesulfonyl-phenyl)-ethanol], for which the SC1.5 is 0.354 µM.

Take `N#Cc1ccc([C@@H](CC2CCCC2)c2cc3cc(F)cnc3[nH]2)cc1` (single isomer, unassigned) [Example 51]: the SC1.5 turned out to be 0.343 µM.

On to `CS(=O)(=O)c1ccc([C@@H](CC2CCCC2)c2cc3cc(C#N)cnc3[nH]2)cc1` (single isomer, unassigned) [Example 53], for which the SC1.5 is 0.144 µM.

For `COC(=O)c1cnc2[nH]c([C@H](CC3CCCC3)c3ccc(S(C)(=O)=O)cc3)cc2c1` (single isomer, unassigned) [Example 55], the SC1.5 came out at 0.512 µM.

With `CS(=O)(=O)c1ccc([C@@H](CC2CCCC2)c2cc3cc(C(=O)O)cnc3[nH]2)cc1` (single isomer, unassigned) [Example 56], the SC1.5 stood at 3.4 µM.

For `CC(C)(O)c1ccc([C@@H](CC2CCCC2)c2cc3cc(C(=O)O)cnc3[nH]2)cc1F` (single isomer, unassigned) [Example 58], the SC1.5 worked out at 9.5 µM.

`CS(=O)(=O)c1ccc(C(CC2CCC(=O)C2)c2cc3cccnc3[nH]2)cc1` (single isomer, unassigned) [Example 78, 3-[2-(4-Methanesulfonyl-phenyl)-2-(1H-pyrrolo[2,3-b]pyridin-2-yl)-ethyl]-cyclopentanone]: the SC1.5 came to 11.9 µM.

In the case of `CS(=O)(=O)c1ccc(C(CC2CCC(=O)C2)c2cc3cccnc3[nH]2)cc1` (single isomer, unassigned) [Example 79, 3-[2-(4-Methanesulfonyl-phenyl)-2-(1H-pyrrolo[2,3-b]pyridin-2-yl)-ethyl]-cyclopentanone], the SC1.5 turned out to be 0.201 µM.

Turning to `CCC(O)(CC)c1ccc([C@@H](CC2CCCC2)c2cc3cccnc3[nH]2)cc1` (single isomer, unassigned) [Example 84], the SC1.5 is 5.9 µM.

Turning to `CS(=O)(=O)c1ccc(C(O)(CC2CCCC2)c2cc3cccnc3[nH]2)cc1` (single isomer, unassigned) [Example 86, 2-Cyclopentyl-1-(4-methanesulfonyl-phenyl)-1-(1H-pyrrolo[2,3-b]pyridin-2-yl)-ethanol], the SC1.5 turned out to be 0.857 µM.

For `CCOC(CC1CCCC1)(c1ccc(S(C)(=O)=O)cc1)c1cc2cccnc2[nH]1` (single isomer, unassigned) [Example 87, 2-[2-Cyclopentyl-1-ethoxy-1-(4-methanesulfonyl-phenyl)-ethyl]-1H-pyrrolo[2,3-b]pyridine], the SC1.5 is 11.0 µM.

For `CC(C)(O)c1ccc([C@@H](CC2CCCC2)c2cc3cccnc3[nH]2)cc1F` (single isomer, unassigned) [Example 96], the SC1.5 was found to be 0.144 µM.

For the compound `CC(C)(O)c1ccc([C@@H](CC2CCOCC2)c2cc3cc(F)cnc3[nH]2)cc1F` (single isomer, unassigned) [Example 98], the SC1.5 was 0.67 µM.

With `CC(C)C[C@H](c1ccc(S(C)(=O)=O)cc1)c1cc2cc(F)cnc2[nH]1` (single isomer, unassigned) [Example 100], the SC1.5 was determined as 0.201 µM.

Turning to `CC(C)C[C@H](c1ccc(S(=O)(=O)CCO)cc1)c1cc2cc(F)cnc2[nH]1` (single isomer, unassigned) [Example 102], the SC1.5 was found to be 0.427 µM.

For `CC(C)(O)c1ccc([C@@H](CC2CCCC2)c2cc3cc(F)cnc3[nH]2)cc1F` (single isomer, unassigned) [Example 104], the SC1.5 was found to be 0.081 µM.

In the case of `CC(C)C[C@H](c1ccc(C(C)(C)O)c(F)c1)c1cc2cc(F)cnc2[nH]1` (single isomer, unassigned) [Example 106], the SC1.5 came out at 0.189 µM.

`CS(=O)(=O)c1ccc([C@@H](CC2CCCC2)c2cc3cc(C(F)(F)F)cnc3[nH]2)cc1` (single isomer, unassigned) [Example 127]: the SC1.5 was found to be 0.607 µM.

In the case of `Cc1cnc2[nH]c([C@H](CC3CCCC3)c3ccc(C(C)(C)O)c(F)c3)cc2c1` (single isomer, unassigned) [Example 129], the SC1.5 was found to be 2.6 µM.

As to `CC(C)CC(c1ccc(S(C)(=O)=O)cc1)c1cc2cc(C(=O)NC(C)C)cnc2[nH]1` (stereo not drawn) [Example 1, 2-[1-(4-Methanesulfonyl-phenyl)-3-methyl-butyl]-1H-pyrrolo[2,3-b]pyridin-5-carboxylic acid isopropylamide], the SC1.5 came to 19.0 µM.

Regarding `CNC(=O)c1cnc2[nH]c(C(CC(C)C)c3ccc(S(C)(=O)=O)cc3)cc2c1` (stereo not drawn) [Example 2, 2-[1-(4-Methanesulfonyl-phenyl)-3-methyl-butyl]-1H-pyrrolo[2,3-b]pyridin-5-carboxylic acid methylamide], the SC1.5 came to 11.3 µM.

In the case of `CS(=O)(=O)c1ccc(C(CC2CCCC2)c2cc3cc(C(=O)N4CCOCC4)cnc3[nH]2)cc1` (stereo not drawn) [Example 4, {2-[2-Cyclopentyl-1-(4-methanesulfonyl-phenyl)-ethyl]-1H-pyrrolo[2,3-b]pyridin-5-yl}-morpholin-4-yl-methanone], the SC1.5 was determined as 10.5 µM.

As to `CNC(=O)c1cnc2[nH]c(C(CC3CCCC3)c3ccc(S(C)(=O)=O)cc3)cc2c1` (stereo not drawn) [Example 5, 2-[2-Cyclopentyl-1-(4-methanesulfonyl-phenyl)-ethyl]-1H-pyrrolo[2,3-b]pyridin-5-carboxylic acid methylamide], the SC1.5 was 1.9 µM.
